Measured values published in patent US20090312284A1, “HISTONE DEACETYLASE INHIBITORS WITH COMBINED ACTIVITY ON CLASS-I AND CLASS-IIB HISTONE DEACETYLASES IN COMBINATION WITH PROTEASOME INHIBITORS” (priority 2006, published 2009).

How the values were obtained:
[1] = tested on: acetylation of tubulin and induction of Hsp 70; test: Acetylation of tubulin and induction of Hsp 70 in A2780 cells; format: cell-based, human; conditions: A2780 ovarian carcinoma cells, 24 h, 0-3000 nM, Western blot
Experimental: Total cell lysates were prepared and analysed by SDS-PAGE. […] Hsp 70 protein was detected with an antibody from Stressgen (Cat. nr. SPA-810), followed by ECL detection. Appropriate dilutions of antibodies were incubated for either 1-2 h at room temperature or overnight at 4° C. In order to control for equal loading, blots were stripped and re-probed with mouse monoclonal anti-actin IgM (Ab-1, Oncogene Research Products). […] Protein-antibody complexes were then visualized by chemiluminescence (Pierce Chemical Co) or fluorescence (Odyssey) according to the manufacturer's instructions. The experiments were performed three times.

[2] = tested on: acetylation of histone H3 and H4 and induction of p21waf1,cip1; test: Acetylation of cellular HDAC 1 substrates and induction of p21waf1,cip1 in A2780 cells; format: cell-based, human; conditions: A2780 ovarian carcinoma cells, 24 h, 0-3000 nM, Western blot
Experimental: Total cell lysates were prepared and analysed by SDS-PAGE. Levels of acetylated H3 and H4 histones, total level of H3 proteins and levels p21^waf1,cip1 protein were detected using rabbit polyclonal and mouse monoclonal antibodies, followed by enhanced chemoluminescence (ECL) detection.
Appropriate dilutions of antibodies were incubated for either 1-2 h at room temperature or overnight at 4° C. […] Protein-antibody complexes were then visualized by chemiluminescence (Pierce Chemical Co) or fluorescence (Odyssey) according to the manufacturer's instructions. The experiments were performed three times.

HCT-116 cells = conditions: p21waf1,cip1 deficient cells as compared to the parental HCT-116 cells; cited from earlier work

Structure (SMILES) | concentration when start of induction of acetylation of tubulin and induction of Hsp 70 is observed [1] | concentration when induction of acetylation of histone H3 and H4 and induction of p21waf1,cip1 is observed [2] | increase in resistance to the HDAC inhibitor (HCT-116 cells)
O=C(CCCCCCC(=O)Nc1ccccc1)NO [SAHA, suberoylanilide hydroxamic acid] | 100 nM | 3000 nM | –
Cc1[nH]c2ccccc2c1CCNCc1ccc(/C=C/C(=O)NO)cc1 [LBH-589] | 30 nM | – | –
CC(/C=C/C(=O)NO)=C\[C@@H](C)C(=O)c1ccc(N(C)C)cc1 [trichostatin A] | – | – | 6 fold
O=C(NO)c1cnc(N2CCN(S(=O)(=O)c3ccc4ccccc4c3)CC2)nc1 [R306465] | – | 100 nM | –
